The results in this text go back to patent publication US12161648B2, “Covalent targeting of E3 ligases” (The Regents of the University of California, priority 2018, dated 2024).

One assay deals with T1, RNF4 (Homo sapiens, UniProt P78317).
T1 construct: purchased Boston Biochem K-220
T1 sequence (P78317 1-190): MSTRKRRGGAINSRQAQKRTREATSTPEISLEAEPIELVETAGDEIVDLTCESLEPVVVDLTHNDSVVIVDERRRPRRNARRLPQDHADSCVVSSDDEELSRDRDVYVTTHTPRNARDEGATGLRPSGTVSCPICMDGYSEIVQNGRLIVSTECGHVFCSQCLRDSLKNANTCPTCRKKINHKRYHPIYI
The experiment in a line: Gel-based ABPP, competition against IA-rhodamine labeling of pure RNF4. It counts as binding. The note with it: for IC50: read-out: 50% inhibitory concentration (IC50), IA-rhodamine labeling of RNF4, densitometry; for IC50 / hits from covalent ligand screen against IA-rhodamine labeling of RNF4: 30 min pre-incubation; for hits from covalent ligand screen against IA-rhodamine labeling of RNF4: covalent ligands 50 μM, IA-rhodamine 250 nM 1 h. The procedure:
Gel-Based ABPP. Gel-based ABPP methods were performed as previously described^5,6,25,26. Pure recombinant human RNF4 was purchased from Boston Biochem (K-220). RNF4 (0.25 μg) was diluted into 50 μL of PBS and 1p L of either DMSO (vehicle) or covalently acting small molecule to achieve the desired concentration. After 30 minutes at room temperature, the samples were treated with 250 nM IA-Rhodamine (Setareh Biotech, 6222, prepared in anhydrous DMSO) for 1 h at room temperature. Samples were then diluted with 20 μL of 4× reducing Laemmli SDS sample loading buffer (Alfa Aesar) and heated at 90° C. for 5 min. The samples were separated on precast 4-20% Criterion TGX gels (Bio-Rad Laboratories, Inc.). Fluorescent imaging was performed on a ChemiDoc MP (Bio-Rad Laboratories, Inc) inhibition of target labeling was assessed by densitometry using ImageJ.

The test system of assay [1] is 231MFP breast cancer cells. Kind of assay: isoTOP-ABPP proteome-wide selectivity in 231MFP cells in situ. It counts as cell-based, human. How it is done: IsoTOP-ABPP chemoproteomic studies. IsoTOP-ABPP studies were done as previously reported^4,6,7,12. […] Proteomes were subsequently treated with IA-alkyne (100 μM, Chess GmbH, 3187) for 1 h at RT. […] Tryptic peptides were eluted off.
Mass Spectrometry Analysis.

For the next assay, the system named is 231MFP cells. Kind of assay: Quantitative proteomic profiling of proteins enriched by the nimbolide-alkyne probe in 231MFP cells. The settings on record: in situ labeling of 231MFP cells. It counts as cell-based, human.
A further assay has as its target T2, RNF114 (Homo sapiens, UniProt Q9Y508).
T2 construct: Myc; FLAG; purchased Origene
Kind of assay: Nimbolide-alkyne labeling of RNF114 in 231MFP cells in situ. The assay is classed as cell-based. The procedure: Biotin-azide was appended to probe-labeled proteins by CuAAC, and these proteins were subsequently avidin-enriched. Resulting pulled down proteins were analyzed by SDS/PAGE and Western blotting for RNF114. Gels shown in FIGS. 21C-21F are representative gels from n=3 biologically independent samples/group.

The test system of assay [2] is BRD4. Kind of assay: Cell based degrader assay, BRD4 levels by Western blotting in 231MFP cells. Details: species or system human. The settings on record: for dose-response of BRD4 degradation: 12 h. The procedure:
(§1) Cell based degrader assays. For assaying degrader activity, cells were seeded (500,000 for 231MFP cells, 300,000 for HeLa cells) into a 6 cm tissue culture dish (Corning) in 2.0-2.5 mL of media and allowed to adhere overnight. The following morning, media was replaced with complete media containing the desired concentration of compound diluted from a 1000× stock in DMSO. At the specified timepoint, cells were washed once with PBS on ice, before 150 uL of lysis buffer was added to the plate (10 mM sodium phosphate, 150 mM NaCl, 0.1% SDS, 0.5% sodium deoxycholate, 1% Triton X100). The cells were incubated in lysis buffer for 5 min before scraping and transfer to microcentrifuge tubes. The lysates were then frozen at −80 C or immediately processed for western blotting. To prepare for western blotting, the lysates were cleared with 20,000 g spin for 10 min and the resulting supernatants quantified via BCA assay. The lysates were normalized by dilution with PBS to match the lowest concentration lysate and appropriate amount of 4× Laemmli's reducing buffer added.
Western blotting. Antibodies to RNF4 (Proteintech, 17810-1-AP, 1:1000), GAPDH (Proteintech, 60004-1-IG, 1:5000), BRD4 (Abcam, Ab128874, 1:1000), and beta-actin (Proteintech Group Inc., 6609-1-IG, 1:7000) were obtained from the specified commercial sources and dilutions were prepared in 5% BSA/TBST at the specified dilutions.
On the technique in general: A western blot detects proteins with antibodies after separation by electrophoresis.

The target in assay [3] is T3, BRD4 (Homo sapiens, UniProt O60885).
T3 construct: endogenous in cells; host or cells: HeLa cells, RNF4 wild-type and RNF4 knockout
Kind of assay: BRD4 degradation in RNF4 wild-type and knockout HeLa cells. The assay is classed as cell-based. The settings on record: 10 μM 5 h. The procedure:
Cell Culture. The 231MFP cells were obtained from Prof. Benjamin Cravatt and were generated from explanted tumor xenografts of MDA-MB-231 cells as previously described^27. RNF4 knockout HeLa cells were purchased from EdiGene USA (CL0033025003A). RNF4 wild-type HeLa cells were provided by EdiGene USA or the UC Berkeley Cell Culture Facility. 231MFP cells were cultured in L-15 media (Corning) containing 10% (v/v) fetal bovine serum (FBS) and maintained at 37° C. with 0% CO2. HeLa cells were cultured in DMEM media (Corning) containing 10% (v/v) fetal bovine serum (FBS) and maintained at 37° C. with 5% CO2.
as §1, with “The cells were incubated in lysis buffer for 5 min before scraping and transfer to microcentrifuge tubes. The lysates were then frozen at −80 C or immediately processed for western blotting.” left out, “The lysates were normalized by dilution with PBS to match the lowest concentration lysate and appropriate amount of 4× Laemmli's reducing buffer added.” left out

For another assay, the system named is human RNF114. The experiment in a line: Gel-based ABPP, competition against JNS27 labeling of pure RNF114. It counts as binding. The settings on record: JNS27 50 μM. The procedure:
(§2) Gel-Based ABPP. Gel-based ABPP methods were performed as previously described^34,62,63,67. Recombinant pure human proteins were purchased from Origene. […] CuAAC was performed to append rhodamine-azide (1 μM final concentration) onto alkyne probe-labeled proteins. Samples were then diluted with 20 μL of 4× reducing Laemmli SDS sample loading buffer (Alfa Aesar) and heated at 90° C. for 5 min. The samples were separated on precast 4-20% TGX gels (Bio-Rad Laboratories, Inc.). Prior to scanning by ChemiDoc MP (Bio-Rad Laboratories, Inc), gels were fixed in a solution of 10% acetic acid, 30% ethanol for 2 hrs. Inhibition of target labeling was assessed by densitometry using ImageJ.
as §2, with “described^14.” for “described^34,62,63,67.”

Assay [4] deals with BRD4. Kind of assay: BRD4 degradation in RNF114 wild-type and knockout HAP1 cells. The assay is classed as cell-based, human.
Assay [5] has as its system 231MFP breast cancer cells. The experiment in a line: TMT-based quantitative proteomic profiling of 231MFP cells. It counts as cell-based, human. The settings on record: 100 nM, 12 h.
Source text: Data shown in (FIG. 22F) are for 6397 proteins quantified with 2 or more unique peptides in n=3 biologically independent samples/group.
Data shown in FIG. 23I are for 5797 proteins quantified with 2 or more unique peptides in triplicate treatments.

Structures are written as SMILES. Entries after “also recorded” stand apart in the source; their conditions may differ.

T2 sequence (Q9Y508 whole entry): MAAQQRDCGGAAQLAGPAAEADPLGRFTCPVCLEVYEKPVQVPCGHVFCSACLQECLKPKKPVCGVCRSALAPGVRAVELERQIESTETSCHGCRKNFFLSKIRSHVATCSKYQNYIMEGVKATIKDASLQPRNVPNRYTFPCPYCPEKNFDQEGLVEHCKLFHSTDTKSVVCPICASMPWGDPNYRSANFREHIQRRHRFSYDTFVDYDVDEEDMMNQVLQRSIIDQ

On to `COc1ccc(Oc2ccc(N(Cc3ccccc3)C(=O)CCl)cc2)cc1` [CCW16, N-benzyl-2-chloro-N-(4-(4-methoxyphenoxy)phenyl)acetamide], for which, on RNF4, the “reduced IA-rhodamine labeling of RNF4 observed down to” value turned out to be 1 µM and the IC50 worked out at 1800 nM. Besides, in assay [1], the “selectivity for RNF4 in cells” value is recorded as “not yet completely selective”.

On to `C#CCNC(=O)c1ccc(-c2occc2[C@@H]2C[C@H]3O[C@@H]4[C@@H]5OC(=O)[C@]6(C)C=CC(=O)[C@](C)([C@@H](CC(=O)OC)[C@]4(C)C3=C2C)[C@@H]56)cc1` [nimbolide-alkyne probe], for which, in the assay on 231MFP cells, the “additional proteins enriched by >10-fold compared to no-probe controls” value is 114 and the “enrichment of RNF114 compared to no-probe controls” value is over 10 fold. Besides, the “in situ probe labeling of Flag-tagged RNF114 observed down to” value at RNF114 (231MFP cells expressing Flag-RNF114, 2 h) was found to be 100 nM. Moreover, on RNF114 (231MFP cells, 50 μM probe, 1.5 h), the “pulldown of endogenous RNF114” value is reported as “significant pulldown”.

For `Cc1sc2c(c1C)C(c1ccc(Cl)cc1)=N[C@@H](CC(=O)NCCCCOc1ccc(Oc3ccc(N(Cc4ccccc4)C(=O)CCl)cc3)cc1)c1nnc(C)n1-2` [CCW 28-3, (S)—N-benzyl-2-chloro-N-(4-(4-(4-(2-(4-(4-chlorophenyl)-2,3,9-trimethyl-6H-thieno[3,2-f][1,2,4]triazolo[4,3-a][1,4]diazepin-6-yl)acetamido)butoxy)phenoxy)phenyl)acetamide], in the assay with BRD4 [2], the “BRD4 degradation compared with MZ1” value is listed as “does not degrade BRD4 as well as”. Besides, the BRD4 degradation result in the assay on BRD4 [2] (231MFP cells, 3 h) is reported as “leads to BRD4 degradation; also recorded: degrades BRD4 in a dose-responsive manner”. The “BRD4 degradation after pre-treatment with bortezomib (BTZ), JQ1 or TAK-243” value in the assay on BRD4 [2] (231MFP, inhibitors 10 μM 30 min, degrader 1 μM 3 h) is recorded as “prevented”. Also, the IC50 on RNF4 is 540 nM. The “selectivity for RNF4 in cells” value in assay [1] is given as “not yet completely selective”. The “off-targets part of the ubiquitin-proteasome system” value in assay [1] (10 μM in situ) is recorded as “none of these off-targets of CCW 28-3 are part of the ubiquitin-proteasome system”. Moreover, the “targets with isotopically light to heavy ratios greater than 4 out of 1114 total quantified probe-modified peptides” value in assay [1] (10 μM in situ 1 h, IA-alkyne 100 μM) was determined as 7. For the same compound, the “BRD4 degradation in RNF4 knockout cells” value on BRD4 [3] (RNF4 knockout HeLa) is listed as “not evident”. Besides, at BRD4 [3] (RNF4 wild-type), the “BRD4 degradation in HeLa control cells” value was “observed”.

Turning to `Cc1ncsc1-c1ccc(CNC(=O)[C@@H]2C[C@@H](O)CN2C(=O)[C@@H](NC(=O)COCCOCCOCCNC(=O)C[C@@H]2N=C(c3ccc(Cl)cc3)c3c(sc(C)c3C)-n3c(C)nnc32)C(C)(C)C)cc1` [MZ1, reference compound], in the assay with BRD4 [2] (231MFP cells), the “dose-response of BRD4 degradation” value was “less degradation at 20 μM compared to 10, 1, and 0.1 μM; also recorded: better BRD4 degradation at 1 and 0.1 μM, and equivalent degradation to XH2 at 10 nM”.

Turning to `C#CCC1CCC=CC1=O` (stereo not shown) [JNS27, reference compound], the “probe labeling of RNF114, wild-type versus C8A mutant” value in the assay on human RNF114 is reported as “selective labeling of C8 on RNF114”.

`COC(=O)C[C@H]1[C@]2(C)C3=C(C)[C@H](c4ccoc4-c4ccc(C(=O)NCCOCCOCCOCCNC(=O)C[C@@H]5N=C(c6ccc(Cl)cc6)c6c(sc(C)c6C)-n6c(C)nnc65)cc4)C[C@H]3O[C@@H]2[C@@H]2OC(=O)[C@]3(C)C=CC(=O)[C@@]1(C)[C@@H]23` [XH1]: the BRD4 degradation entry with BRD4 [2] (231MFP cells, 12 h treatment) is “did not show appreciable BRD4 degradation”.

Consider `COC(=O)C[C@H]1[C@]2(C)C3=C(C)[C@H](c4ccoc4-c4ccc(C(=O)NCCCNC(=O)C[C@@H]5N=C(c6ccc(Cl)cc6)c6c(sc(C)c6C)-n6c(C)nnc65)cc4)C[C@H]3O[C@@H]2[C@@H]2OC(=O)[C@]3(C)C=CC(=O)[C@@]1(C)[C@@H]23` [XH2], for which, in the assay on BRD4 [2] (231MFP cells, 100 nM), the “time to BRD4 degradation” value is at most 12 h. Besides, the “dose-response of BRD4 degradation” value in the assay with BRD4 [2] (231MFP cells) is “less degradation at 1 μM compared to 0.1 and 0.01 μM”. Moreover, in the assay on BRD4 [2] (231MFP cells, 12 h treatment), the BRD4 degradation result is “led to BRD4 degradation”. For the same compound, in the assay with BRD4 [2] (231MFP, BTZ 1 μM, degrader 100 nM 12 h), the “BRD4 degradation with proteasome inhibitor bortezomib (BTZ)” value is given as “attenuated”. Also, the “BRD4 degradation with TAK-243 or pre-competing JQ1” value with BRD4 [2] (231MFP, TAK-243 10 μM or JQ1 1 μM, degrader 100 nM 12 h) is listed as “prevented; also recorded: attenuated”. Moreover, the “BRD4 degradation with translation inhibitor emetine” value in the assay on BRD4 [2] (231MFP, emetine 75 μM, degrader 100 nM 12 h) is “had no effect”. Also, the “BRD4 degradation after re-expression of wild-type RNF114 in HAP1 RNF114 knockout cells” value in the assay on BRD4 [4] was “restoration of BRD4 degradation”. For the same compound, the “BRD4 degradation in RNF114 knockout (KO) HAP1 cells” value with BRD4 [4] (100 nM, 12 h) is recorded as “not observed”. In [5], the “BRD2 and BRD3 levels” value is “sparing the other identified BET family members BRD2 and BRD3”; the “selectivity of protein degradation, BRD4” value is “selectively degrades BRD4”.

With `O=C(CCl)Nc1cccc2cnccc12` [TRH 1-163, 2-Chloro-N-(isoquinolin-5-yl)acetamide], at RNF4 (confirmation of screening hits), the “inhibition of IA-rhodamine labeling of RNF4” value is “reproducible and dose-responsive inhibition”. Moreover, the “hits from covalent ligand screen against IA-rhodamine labeling of RNF4” value (“hits from covalent ligand screen” for short) at RNF4 is on record as “potential hits”. Also, on RNF4 (gel-based ABPP gels silver stained), the “silver staining of RNF4” value is “may be causing protein precipitation”.

`C=CC(=O)NC1Cc2ccccc2C1` [TRH 1-74]: the “hits from covalent ligand screen” value at RNF4 is listed as “potential hits”.

`CC(CCc1ccccc1)NC(=O)CCl` (stereo not shown) [DKM 2-76]: the “hits from covalent ligand screen” value on RNF4 is listed as “potential hits”.
